Laboratory results taken from US9238654B2, “Singleton inhibitors of sumoylation enzymes and methods for their use” (CITY OF HOPE, priority 2010, dated 2016).
Where two headings read alike, the source gives them in different places.

Assays:
SUMO E1 or SUMO E2 = molecular target: T1, SUMO E1 or SUMO E2 (Homo sapiens, UniProt Q9UBE0+Q9UBT2); assay: SUMOylation HTS assay, SUMO (AlphaScreen-BSA), SUMOylation of RanGAP1; type: biochemical
T1 sequence (Q9UBE0 1-346): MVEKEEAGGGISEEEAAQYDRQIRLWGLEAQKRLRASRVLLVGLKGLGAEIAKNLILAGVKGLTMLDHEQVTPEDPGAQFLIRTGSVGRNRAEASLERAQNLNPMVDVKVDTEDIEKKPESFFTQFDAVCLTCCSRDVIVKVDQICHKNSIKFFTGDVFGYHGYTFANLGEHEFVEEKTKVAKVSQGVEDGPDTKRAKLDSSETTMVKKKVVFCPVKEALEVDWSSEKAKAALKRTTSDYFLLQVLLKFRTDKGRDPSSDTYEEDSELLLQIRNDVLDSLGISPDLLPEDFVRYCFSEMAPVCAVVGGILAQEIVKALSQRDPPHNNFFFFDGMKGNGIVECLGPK
T1 sequence (Q9UBT2 1-640): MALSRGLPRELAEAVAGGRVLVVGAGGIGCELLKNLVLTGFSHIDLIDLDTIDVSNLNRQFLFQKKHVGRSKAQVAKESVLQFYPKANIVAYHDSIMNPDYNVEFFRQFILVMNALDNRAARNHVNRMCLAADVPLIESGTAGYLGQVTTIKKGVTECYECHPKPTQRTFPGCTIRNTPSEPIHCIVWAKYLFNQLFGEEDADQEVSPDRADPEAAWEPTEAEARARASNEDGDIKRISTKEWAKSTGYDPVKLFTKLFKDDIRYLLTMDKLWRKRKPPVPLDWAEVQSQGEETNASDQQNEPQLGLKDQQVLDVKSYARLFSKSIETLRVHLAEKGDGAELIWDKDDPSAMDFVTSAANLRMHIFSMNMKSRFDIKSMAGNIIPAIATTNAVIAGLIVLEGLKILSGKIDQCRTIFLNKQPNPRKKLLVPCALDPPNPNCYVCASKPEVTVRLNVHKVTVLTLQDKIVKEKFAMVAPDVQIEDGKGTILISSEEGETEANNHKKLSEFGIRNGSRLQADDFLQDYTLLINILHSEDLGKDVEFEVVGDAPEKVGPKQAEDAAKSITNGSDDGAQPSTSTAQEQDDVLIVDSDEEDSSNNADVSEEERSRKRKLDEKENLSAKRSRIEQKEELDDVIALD
Procedure: (§1) A lead compound was selected, and is identified herein as MLS0437113 (FIG. 3).
(§2) Each singleton analog was analyzed to determine its inhibitory effect on SUMOylation and ubiquitination, tested both in the HTS format and gel-based format (FIG. 4).

SUMO E1 [1] = molecular target: T2, SUMO E1 (Homo sapiens, UniProt Q9UBE0+Q9UBT2); assay: Gel-based assay of SUMO-RanGap1, E1-SUMO and E2~SUMO thioester conjugate formation; type: biochemical; settings: for Inhibitory effect on SUMOylation, comparison within the series: HTS and gel-based format, each inhibitor 10 μM (FIG. 4); for SUMO-RanGap1 and SUMO-E2 Conjugation Inhibition: strength in words
T2 sequence (Q9UBE0 1-346): T1 sequence (Q9UBE0 1-346)
T2 sequence (Q9UBT2 1-640): T1 sequence (Q9UBT2 1-640)
Procedure: FIG. 4 illustrates a representative assay to determine the efficacy of E1 inhibitors generated from a singleton probe. Stereo-specific effects of this series in inhibiting the SUMO E1. […] Negative and positive controls were reactions in the absence and presence of ATP. […] The compounds that are immediately right to them in the assays, MLS-0437114 and MLS-0437121, are their stereo-isomers, respectively. The stereo chemistry was determined by X-ray crystallography.
as §2
The molecular weight (MW), IC50, strength of SUMO-RanGap1 and SUMO-E2 conjugation inhibition of the SUMO E1 inhibitors derived from the singleton scaffold (see Table 1 above for structures) generated according to the embodiments herein are shown in Table 3 below.

SUMO E1 [2] = molecular target: T2, SUMO E1; assay: Rate of SUMO~E1 product formation with increasing inhibitor concentrations; type: biochemical
Procedure: Data is analyzed by fitting to a rectangular hyperbolic to extract IC50 (lower left) or the solution to a quadratic equation to determine Ki^app (lower right).
Their inhibitory constants were measured in the reaction to monitor the rate of SUMO˜E1 product formation in the presence of increasing concentrations of inhibitors (FIG. 5). Inhibition studies were performed in both the presence and absence of 0.02% Triton X-100 to ensure against potential promiscuous inhibition by premicelles due to the formation of aggregates. Inhibition data was fit to a rectangular hyperbolic to extract an IC50 (Equation 1). The Ki^app was extracted by fitting the percent inhibition as a function of inhibitor concentration using equations 1 and 2 (FIG. 5) (Spengler et al. 2005). % Inhibition=([I]*Vmax)/([I]+IC50) (Equation 1) v/v0=(1−(([E]0+[I]+Ki^app)−(([E]0+[I]+Ki^app)^2−4([E]0[I]))^1/2)/2[E]0 (Equation 2)

[3] = Stability in Tris buffer, parent remaining by HPLC-MS; type: physicochemical; settings: for % Remaining after 60 min in 50 mM Tris (−BSA): without BSA; for % Remaining after 60 min in 50 mM Tris (+BSA): with BSA
Procedure: Stable compounds in Tris were tested with and without BSA. Amount of parent compound remaining was quantified using HPLC-MS (area under the curve (AUC) method).

[4] = system: Immortalized human hepatocytes, Fa2N-4 cells; assay: Hepatocyte toxicity, cell viability by cellular ATP levels; type: cell-based; settings: concentrations up to 50 μM, 24 hrs
Procedure: FIG. 10 illustrates that E1 inhibitor MLS-0437113 has low toxicity in a normal liver cell line. Immortalized human hepatocytes, Fa2N-4 cells (XenoTech) were seeded at ˜50-60K cells/well, and incubated with a range of concentrations (0.01-50 μM) 1, in duplicate, for 24 hrs at 37° C., 5% CO2. Cell viability was determined by cellular ATP levels using the Luminescence ATP Detection Assay System (Tecan).

ubiquitin E1 = molecular target: T3, ubiquitin E1 (Homo sapiens, UniProt P22314); assay: Poly-ubiquitination assay using ubiquitin, ubiquitin E1, Ubc5 and Apc11; type: biochemical; settings: SUMO E1 versus ubiquitin E1, derived from the IC50s of HTS assays
T3 sequence (P22314 1-1058): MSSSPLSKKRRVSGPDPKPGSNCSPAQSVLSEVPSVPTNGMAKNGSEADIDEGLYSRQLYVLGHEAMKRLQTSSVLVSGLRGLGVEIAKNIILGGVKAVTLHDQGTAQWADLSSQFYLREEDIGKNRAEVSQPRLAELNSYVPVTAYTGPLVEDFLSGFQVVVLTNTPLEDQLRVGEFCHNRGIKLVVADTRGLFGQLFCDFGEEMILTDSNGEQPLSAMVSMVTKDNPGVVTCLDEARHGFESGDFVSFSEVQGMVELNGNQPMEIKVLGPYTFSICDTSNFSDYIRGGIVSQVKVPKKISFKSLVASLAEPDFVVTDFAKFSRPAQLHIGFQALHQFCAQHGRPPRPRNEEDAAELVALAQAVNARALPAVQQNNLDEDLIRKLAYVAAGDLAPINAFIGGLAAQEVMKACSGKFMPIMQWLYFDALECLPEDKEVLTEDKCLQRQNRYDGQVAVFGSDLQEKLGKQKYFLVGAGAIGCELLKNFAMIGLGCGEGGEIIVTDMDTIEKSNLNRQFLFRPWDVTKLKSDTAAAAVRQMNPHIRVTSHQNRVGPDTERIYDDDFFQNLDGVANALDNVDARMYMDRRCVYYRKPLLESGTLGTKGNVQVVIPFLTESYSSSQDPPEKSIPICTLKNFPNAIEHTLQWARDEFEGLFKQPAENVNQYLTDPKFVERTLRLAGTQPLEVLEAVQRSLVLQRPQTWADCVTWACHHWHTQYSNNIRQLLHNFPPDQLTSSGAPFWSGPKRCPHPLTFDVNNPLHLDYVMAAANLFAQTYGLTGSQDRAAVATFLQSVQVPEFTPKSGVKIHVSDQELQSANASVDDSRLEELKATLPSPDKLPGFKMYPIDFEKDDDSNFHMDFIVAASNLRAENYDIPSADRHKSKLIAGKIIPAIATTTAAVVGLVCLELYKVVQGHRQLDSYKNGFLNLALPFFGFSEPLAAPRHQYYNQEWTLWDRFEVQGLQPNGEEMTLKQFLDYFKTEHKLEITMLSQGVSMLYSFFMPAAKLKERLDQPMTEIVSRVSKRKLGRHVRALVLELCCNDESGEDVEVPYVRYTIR
Procedure: as §1, §2

MCF-7 cells = assay: Inhibition of global SUMOylation in cells, Western blot with anti-SUMO antibodies; type: cell-based; settings: compound in culture media 8-18 h
Procedure: Western blots (probed with anti-SUMO2/3 antibodies) of cell lysates from MCF-7 cells treated with the inhibitor. SUMO2/3 modifies many proteins as poly-SUMO chains, and is detected as high molecular weight smears.
In this experiment, the compound was added to cell culture media at the indicated concentrations for 8-18 h. Then SUMOylated proteins were detected using anti-SUMO antibodies.

Row | Compound | SUMO (AlphaScreen-BSA) IC50 (SUMO E1 or SUMO E2) [µM] | SUMO-RanGap1 and SUMO-E2 Conjugation Inhibition (SUMO E1 [1]) | % Remaining after 60 min in 50 mM Tris (−BSA) [3] [%] | also measured
1 | COC(=O)C1=C(C(=O)OC)[C@@]2([C@@H](Cc3ccccc3)Nc3ccccc3)C=C[C@@H]1O2 (racemic) [MLS-0437113, Dimethyl 1-(2-Phenyl-1-(phenylamino)ethyl)-7-oxabicyclo[2.2.1]hepta-2,5-diene-2,3-dicarboxylate] | 0.47 | Strong | 0 | Inhibitory effect on SUMOylation, comparison within the series (SUMO E1 [1]): most potent inhibitor in this series; Inhibition of SUMO E1, potency in words (SUMO E1 [2]): similarly potent; Inhibition of SUMO E1, potency in words (SUMO E1 [2]; listed as MLS0437113): submicromolar inhibition; Stability in Tris buffer, in words [3]: unstable; Toxicity in human hepatocytes [4]: low toxicity
2 | COC(=O)C1=C(C(=O)OC)C2([C@H](Cc3ccccc3)Nc3ccccc3)C=CC1O2 (mixture of isomers) [MLS-0437114] | 11.7 | Weak |  | Inhibitory effect on SUMOylation, comparison within the series (SUMO E1 [1]): significantly less inhibitory
3 | COC(=O)C1=C(C(=O)OC)C2([C@@H](Cc3ccccc3)Nc3ccc(C)cc3)C=CC1O2 (some centres unmarked) [MLS-0437109] | 6.9 | Weak |  | 
4 | COC(=O)C1=C(C(=O)OC)C2([C@H](Cc3ccccc3)Nc3ccc(C)cc3)C=CC1O2 (some centres unmarked) [MLS-0437110] | 9.2 | Very Weak |  | 
5 | C=CC[C@@H](Nc1ccccc1)C12C=CC(O1)C(C(=O)OC)=C2C(=O)OC (some centres unmarked) [MLS-0437111] | 3.3 | Strong |  | 
6 | COC(=O)C1=C(C(=O)OC)C2([C@@H](Cc3ccccc3)Nc3ccc(OC)cc3)C=CC1O2 (some centres unmarked) [MLS-0437118] | 9.5 | Very Weak |  | 

Now from value to compound, other results behind:

Row | SUMO (AlphaScreen-BSA) IC50 (SUMO E1 or SUMO E2) [µM] | SUMO-RanGap1 and SUMO-E2 Conjugation Inhibition (SUMO E1 [1]) | % Remaining after 60 min in 50 mM Tris (−BSA) [3] [%] | Compound | also measured
7 | 5.2 | Weak | 29 | COC(=O)C1=C(C(=O)OC)C2([C@@H](Cc3ccccc3)Nc3ccc(Cl)cc3)C=CC1O2 (mixture of isomers) [MLS-0437120] | Inhibitory effect on SUMOylation, comparison within the series (SUMO E1 [1]): more inhibitory than MLS-0437121
8 | 9.2 | Very Weak |  | COC(=O)C1=C(C(=O)OC)C2([C@H](Cc3ccccc3)Nc3ccc(Cl)cc3)C=CC1O2 (mixture of isomers) [MLS-0437121] | 
9 |  |  | 48 | CCC[C@H](Nc1ccccc1)C12C=C[C@H](O1)C(C(=O)OC)=C2C(=O)OC (stereo in doubt) [MLS-0437313] | SUMO/ubiquitin Selectivity (ubiquitin E1): >100; % Remaining after 60 min in 50 mM Tris (+BSA) [3]: 89%
10 |  |  | 86 | COC(=O)C1=C(C(=O)OC)C2([C@@H](Nc3ccccc3)c3ccc(C)cc3)C=C[C@@H]1O2 (stereo in doubt) [MLS-0437317] | Inhibition of SUMO E1, potency in words (SUMO E1 [2]): high potency; SUMO/ubiquitin Selectivity (ubiquitin E1): >100; % Remaining after 60 min in 50 mM Tris (+BSA) [3]: 85%; Stability in Tris buffer, in words [3]: stable; Inhibition of global SUMOylation (MCF-7 cells): inhibited global SUMOylation in a dose-dependent manner
11 | 12.5 | Weak |  | C=CC[C@@H](Nc1ccc(Cl)cc1)C12C=CC(O1)C(C(=O)OC)=C2C(=O)OC (some centres unmarked) [MLS-0437126] | 
12 | 11.5 | Weak |  | C=CC[C@H](Nc1ccc(Cl)cc1)C12C=CC(O1)C(C(=O)OC)=C2C(=O)OC (some centres unmarked) [MLS-0437127] | 
13 |  |  | 84 | COC(=O)C1=C(C(=O)OC)C2(C(Nc3ccccc3)c3ccc(F)cc3)C=C[C@@H]1O2 (some centres unmarked) [MLS-0437320] | SUMO/ubiquitin Selectivity (ubiquitin E1): >100; % Remaining after 60 min in 50 mM Tris (+BSA) [3]: 87%
14 |  |  | 82 | COC(=O)C1=C(C(=O)OC)C2(C(Nc3ccccc3)c3ccc(OC(F)(F)F)cc3)C=C[C@@H]1O2 (some centres unmarked) [MLS-0437321] | SUMO/ubiquitin Selectivity (ubiquitin E1): >100; % Remaining after 60 min in 50 mM Tris (+BSA) [3]: 64%
